Where two headings read alike, the source gives them in different places.
Legend:
[1] = test system: E. histolytica HM1: IMSS trophozoites; experiment: Parasite assay, CellTiter-Glo EC50 dose response, E. histolytica trophozoites; type: cell-based, Entamoeba histolytica; settings: for EC50: 48 h
Protocol: (§1) Trophozoites of E. histolytica HM1: IMSS and G. lamblia WB strains were axenically maintained in TYI-S-33 medium supplemented with penicillin (100 U/ml), streptomycin (100 μg/ml). Trophozoites of N. fowleri strain KUL were axenically cultured in Nelson’s medium supplemented with 10% FBS at 37°C [45]. All experiments were performed using trophozoites harvested during the logarithmic phase of growth. Four solvent partitioned fractions of an aqueous methanolic extract of L. tridentata and compounds 1–9 were screened for activity against E. histolytica, G. lamblia, and N. fowleri. For primary screening, the positive control for E. histolytica and G. lamblia was 5 μg/mL of metronidazole (Sigma-Aldrich) and 46 μg/mL of amphotericin B for N. fowleri (Sigma-Aldrich). Test samples were diluted to 10 mg/mL of extracts, HPLC fractions, and pure compounds in DMSO. Finally, 0.5 μL of diluted sample was transferred to white, solid bottom tissue culture 96-well plates (E&K Scientific) followed by addition of 99.5 μL trophozoites (5,000 E. histolytica and G. lamblia, and 10,000 N. fowleri) in TYI-S-33 medium or Nelson’s medium. The final concentration for test compounds was 50 μg/mL and 0.5% DMSO, which was the negative control and compound vehicle that we have shown has no effect the growth rate of trophozoites. Assay plates were incubated for 48 h at 37°C. E. histolytica and G. lamblia plates were kept in the GasPak EZ Anaerobe Gas Generating Pouch System (VWR) to maintain anaerobic condition throughout the incubation period. Screening was performed in duplicate using the CellTiter-Glo assay (Promega) and luminescence was measured using an EnVision plate reader (PerkinElmer).
(§2) The antiparasitic activity of 1–6 and 9 were confirmed by EC50 dose response experiments, using the CellTiter-Glo assay, conducted in triplicate over a concentration range from 5-to-700 μM against trophozoites (Table 3). Miltefosine and metronidazole, current drugs for the treatment of PAM and amebiasis and giardiasis were also tested in triplicate as positive controls for EC50 determination (Table 3). Dose response curves including standard deviation (SD) calculation were processed using GraphPad Prism software 5.0. Percent inhibition relative to maximum and minimum reference signal controls was calculated using the formula: % Inhibition = [(mean of Maximum Signal Reference Control—Experimental Value)/(mean of Maximum Signal Reference Control—mean of Minimum Signal Reference Control)] × 100.

[2] = test system: G. lamblia WB trophozoites; experiment: Parasite assay, CellTiter-Glo EC50 dose response, G. lamblia trophozoites; type: cell-based, Giardia lamblia; settings: for loss of activity compared to 3, G. lamblia: SAR comparison with compound 3
Protocol: as §1, §2

[3] = test system: N. fowleri strain KUL trophozoites; experiment: Parasite assay, CellTiter-Glo EC50 dose response, N. fowleri trophozoites; type: cell-based, Naegleria fowleri
Protocol: as §1, §2

HUVEC-TERT2 cell line = experiment: HUVEC cell cytotoxicity (CellTiter-Glo, 48 h); type: cell-based, human; settings: for fold less toxic to human cells compared to N. fowleri: HUVEC EC50 versus N. fowleri EC50, P<0.0001; for EC50: Homo sapiens, HUVEC, 48 h, CellTiter-Glo, read-out: EC50 inhibition of HUVEC cell viability
Protocol: The HUVEC-TERT2 cell line was purchased from Evercyte GmbH (Vienna, Austria) and cultured and maintained in endothelial cell basal medium (Lonza) as described previously. Briefly, cells were seeded into a white 384-well solid bottom plate (Nunc, ThermoFisher) at a density of 1000 cells/well in 39 μL of media using a Janus liquid handler (PerkinElmer). Serial dilutions using 1 μL of compound 1 and 2 at varying concentrations were dispensed into each well in triplicate. After 48 h incubation, 40 μL of CellTiter-Glo reagent (Promega) was added into each well. The contents were mixed for 2 min on a microplate shaker to induce cell lysis and further incubated at room temperature for 10 min to stabilize the luminescent signal. Luminescence was measured with an EnVision plate reader (PerkinElmer) and %inhibition calculations were performed using the following formula for single-point normalization: %Inhibition = (1-Raw Sample Value/Mean of DMSO Signal Reference Value) × 100. Dose response curves including EC50 calculations were processed using GraphPad Prism software.

[4] = test system: N. fowleri cysteine protease; experiment: Cysteine protease activity assay in N. fowleri crude lysate (Z-Phe-Arg-AMC); type: biochemical, Naegleria fowleri; settings: at 1.875 μM, total crude lysate of N. fowleri
Protocol: To prepare the cell lysate, N. fowleri trophozoites were removed from the culture flask surface by incubating in an ice bath for 10 min, centrifuged at 300 g for 10 min, and washed twice with PBS (pH 7.2). The cells were disrupted by four cycles of freeze thawing in PBS [51]. Protein concentration was quantified by the method of Bradford (Bio-Rad). The activity of the cysteine protease present in the crude extract after incubating in presence and absence of different concentrations of compounds 1 and 2 was assayed by the liberation of the fluorescent leaving group, 7-amino-4-methyl coumarin (AMC), from the peptide substrate Z–Phe–Arg–AMC (40 μM) (where Z is benzyloxycarbonyl, R&D Systems). The assay was performed at 25°C in an automated microtiter plate spectrofluorometer (EnVision, PerkinElmer) with excitation wavelength at 355 nm and emission wavelength at 460 nm. Enzyme samples were added to the reactivation buffer (10 mM Tris, 5 mM EDTA, 50 mM NaCl, pH 7.4, 10 mM DTT), and preincubated for 20 min at 37°C prior to the hydrolysis of substrate. The rate of substrate hydrolysis at ambient temperature was determined from the rate of increase of fluorescence, monitored on a continuously recording spectrofluorometer and measured as RFU/min/μg protein.

[5] = test system: E. histolytica, G. lamblia, and N. fowleri trophozoites; experiment: Antiparasitic activity, statements for all three pathogens together (CellTiter-Glo); type: cell-based; settings: for antiparasitic activity against the three pathogens (in words): E. histolytica, N. fowleri trophozoites
Protocol: as §1, §2

[6] = trophozoites, 48 h, minimum n = 3
[7] = trophozoites, 48 h, minimum n = 3, read-out: N. fowleri EC50
[8] = Entamoeba histolytica, trophozoites, minimum n = 3, read-out: E. histolytica EC50
[9] = Entamoeba histolytica, trophozoites, minimum n = 3, read-out: E. histolytica pEC50 ± SE (converted)
[10] = Giardia duodenalis, trophozoites, 48 h, minimum n = 3, read-out: G. lamblia EC50
[11] = Giardia duodenalis, trophozoites, 48 h, minimum n = 3, read-out: G. lamblia pEC50 ± SE (converted)
[12] = Naegleria fowleri, 48 h, trophozoites, 48 h, minimum n = 3, read-out: N. fowleri EC50
[13] = Naegleria fowleri, 48 h, trophozoites, 48 h, minimum n = 3, read-out: N. fowleri pEC50 ± SE (converted)
[14] = Entamoeba histolytica, read-out: E. histolytica EC50
[15] = Giardia duodenalis, 48 h, read-out: G. lamblia EC50
[16] = Naegleria fowleri, 48 h, read-out: N. fowleri EC50

| Compound | EC50 [1, 8] | EC50 [1, 9] | EC50 [2, 10] | EC50 [2, 11] | EC50 [3, 12] | EC50 [3, 13] | antiparasitic activity against the three pathogens (in words) [5] | also measured |
| --- | --- | --- | --- | --- | --- | --- | --- | --- |
| 3-Methoxy-6, 7, 4’-trihydroxyflavonol [Compound 9] | – | – | – | – | – | – | – | EC50 ([1]; trophozoites, minimum n = 3, read-out: E. histolytica EC50): > 166 µM; G. lamblia pEC50 ± SE [2, 6]: 3.8 ± 0.02; EC50 ([2]; trophozoites, 48 h, minimum n = 3, read-out: G. lamblia EC50): 153 µM; N. fowleri pEC50 ± SE [3, 6]: 3.6 ± 0.02; EC50 [3, 7]: 235 µM |
| C[C@H](Cc1ccc(O)c(O)c1)[C@@H](C)Cc1ccc(O)c(O)c1 [Compound 1, nordihydroguairetic acid] | 103 µM | 100 µM | 36 µM | 39.8 µM | 36 µM | 39.8 µM | – | EC50 [3, 7]: 37 µM; fold less toxic to human cells compared to N. fowleri (HUVEC-TERT2 cell line): 2.4 fold; EC50 (HUVEC-TERT2 cell line): 86 µM; inhibition of cysteine protease activity [4]: ~50% |
| COc1cc(C[C@@H](C)[C@@H](C)Cc2ccc(O)c(O)c2)ccc1O [Compound 2, 3’-O-methylnordihydroguairetic acid] | 171 µM | 158 µM | 38 µM | 39.8 µM | 38 µM | 39.8 µM | – | fold less toxic to human cells compared to N. fowleri (HUVEC-TERT2 cell line): 1.6 fold; EC50 (HUVEC-TERT2 cell line): 59 µM; inhibition of cysteine protease activity [4]: ~50% |
| C[C@H]1[C@H](c2ccc(O)cc2)c2cc(O)c(O)cc2C[C@H]1C [Compound 3, Nor-3’-demethoxyisoguaiacin] | 94 µM | 100 µM | 49 µM | 50.1 µM | 73 µM | 79.4 µM | – | – |
| COc1cc([C@@H]2c3cc(O)c(O)cc3C[C@@H](C)[C@H]2C)ccc1O [Compound 4, Nor-isoguaicin] | 83 µM | 79.4 µM | 74 µM | 79.4 µM | 75 µM | 79.4 µM | – | loss of activity compared to 3, G. lamblia [2]: ~ 2 fold; EC50 ([5]; span over E. histolytica, N. fowleri, read-out: EC50 values against all three pathogens): 74 to 83 µM |
| COc1cc2c(cc1O)C[C@@H](C)[C@@H](C)[C@@H]2c1ccc(O)cc1 [Compound 5, 3’-Demethoxyisoguaiacin] | 236 µM | 251 µM | 188 µM | 200 µM | 155 µM | 158 µM | comparatively weak activity | loss of activity compared to 3, E. histolytica ([1]; SAR comparison with compound 3): ~ 3 fold; loss of activity compared to 3, G. lamblia [2]: 4 fold; loss of activity compared to 3, N. fowleri ([3]; SAR comparison with compound 3): ~ 2 fold |
| C[C@H]1[C@H](c2ccc(O)c(O)c2)c2cc(O)c(O)cc2C[C@H]1C [Compound 6, 6,3'-Di-O-demethylisoguaiacin] | 146 µM | 158 µM | 96 µM | 100 µM | 150 µM | 158 µM | comparatively weak activity | – |
| C[C@@H]1[C@@H](C)[C@H](c2ccc(O)c(O)c2)O[C@H]1c1ccc(O)cc1 [Compound 7, 3-hydroxy-4-epi-larreatricin] | – | – | – | – | – | – | no antiparasitic activity | EC50 [1, 14]: > 166 µM; EC50 [2, 15]: > 166 µM; EC50 [3, 16]: > 166 µM |
| C[C@@H]1[C@H](C)[C@H](c2ccc(O)cc2)O[C@H]1c1ccc(O)c(O)c1 [Compound 8, (7R, 7’R)-7, 7’-bis(4’, 3,4-trihydroxyphenyl)-(8R, 8’S)-8, 8’-dimethyltetrahydrofuran] | – | – | – | – | – | – | no antiparasitic activity | EC50 [1, 14]: > 166 µM; EC50 [2, 15]: > 166 µM; EC50 [3, 16]: > 166 µM |
| Cc1ncc([N+](=O)[O-])n1CCO [Metronidazole, reference compound] | 5 µM | 5.01 µM | 6.4 µM | 6.31 µM | – | – | – | – |
| CCCCCCCCCCCCCCCCOP(=O)([O-])OCC[N+](C)(C)C [Miltefosine, reference compound] | – | – | – | – | 54.5 µM | 50.1 µM | – | – |

— article PMC5565192, “Larrea tridentata: A novel source for anti-parasitic agents active against Entamoeba histolytica, Giardia lamblia and Naegleria fowleri” (PLoS Neglected Tropical Diseases, 2017)
